How the values were obtained:
Aurora B kinase = target: T1, Aurora B kinase (Homo sapiens, UniProt Q96GD4); assay: Aurora B kinase assay (ADP-Glo); format: biochemical
T1 construct: purchased Promega
Excerpt: This assay made use of the ADP-Glo Kinase Enzyme System from Promega (Madison, AL, USA), which is a bioluminescent assay that employs firefly luciferase in a coupled-enzyme assay format to enable detection of adenosine diphosphate (ADP) levels from ATPase assays.

hERG channel = target: T2, hERG channel (Homo sapiens, UniProt Q12809); assay: hERG fluorescence polarisation assay (Predictor); format: binding; settings: for inhibition at 10 µM: human
T2 construct: purchased Invitrogen
T2 sequence (Q12809 whole entry): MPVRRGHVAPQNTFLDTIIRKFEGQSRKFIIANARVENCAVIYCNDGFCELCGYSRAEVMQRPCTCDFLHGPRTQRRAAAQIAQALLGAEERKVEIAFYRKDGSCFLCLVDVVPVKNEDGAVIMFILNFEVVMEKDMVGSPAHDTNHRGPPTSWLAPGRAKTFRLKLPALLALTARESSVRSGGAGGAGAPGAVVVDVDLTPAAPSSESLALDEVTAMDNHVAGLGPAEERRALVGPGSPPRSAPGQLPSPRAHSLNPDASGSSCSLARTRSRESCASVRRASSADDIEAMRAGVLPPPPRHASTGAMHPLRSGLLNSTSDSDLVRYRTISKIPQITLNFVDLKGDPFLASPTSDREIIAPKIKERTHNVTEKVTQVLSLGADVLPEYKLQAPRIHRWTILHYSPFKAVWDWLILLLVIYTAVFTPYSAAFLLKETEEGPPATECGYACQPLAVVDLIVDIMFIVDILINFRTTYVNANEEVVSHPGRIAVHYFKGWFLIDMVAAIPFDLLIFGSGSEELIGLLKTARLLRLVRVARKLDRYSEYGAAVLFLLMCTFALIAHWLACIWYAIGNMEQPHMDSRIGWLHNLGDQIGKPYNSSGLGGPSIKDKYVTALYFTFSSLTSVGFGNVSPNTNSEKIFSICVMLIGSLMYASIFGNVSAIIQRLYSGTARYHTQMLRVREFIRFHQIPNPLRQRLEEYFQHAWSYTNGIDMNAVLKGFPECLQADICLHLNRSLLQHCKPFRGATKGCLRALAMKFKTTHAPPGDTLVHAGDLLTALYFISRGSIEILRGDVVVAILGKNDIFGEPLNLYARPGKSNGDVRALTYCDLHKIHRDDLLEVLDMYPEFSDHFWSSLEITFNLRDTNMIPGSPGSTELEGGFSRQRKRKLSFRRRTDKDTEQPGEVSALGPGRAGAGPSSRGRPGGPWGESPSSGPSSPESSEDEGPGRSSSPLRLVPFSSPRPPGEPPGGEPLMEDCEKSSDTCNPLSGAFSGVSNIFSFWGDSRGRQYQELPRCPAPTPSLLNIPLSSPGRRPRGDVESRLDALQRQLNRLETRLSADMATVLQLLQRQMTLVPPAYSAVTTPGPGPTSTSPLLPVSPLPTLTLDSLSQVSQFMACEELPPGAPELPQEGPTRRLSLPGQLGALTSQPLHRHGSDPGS
Excerpt: The assay made use of Invitrogen’s Predictor™ hERG Fluorescence Polarisation Assay. This uses a membrane fraction containing hERG channel (Predictor™ hERG Membrane) and a high-affinity red fluorescent hERG channel ligand, or “tracer” (Predictor™ hERG Tracer Red), whose displacement by test compounds can be determined in a homogenous, Fluorescence Polarisation (FP)-based format.

CYP2C19 = target: T3, CYP2C19 (Homo sapiens, UniProt P33261); assay: Cytochrome P450 2C19 assay (P450-Glo); format: in vitro ADME; settings: for inhibition at 10 µM: human
T3 construct: purchased Promega; host or cells: baculovirus-infected insect cells
T3 sequence (P33261 whole entry): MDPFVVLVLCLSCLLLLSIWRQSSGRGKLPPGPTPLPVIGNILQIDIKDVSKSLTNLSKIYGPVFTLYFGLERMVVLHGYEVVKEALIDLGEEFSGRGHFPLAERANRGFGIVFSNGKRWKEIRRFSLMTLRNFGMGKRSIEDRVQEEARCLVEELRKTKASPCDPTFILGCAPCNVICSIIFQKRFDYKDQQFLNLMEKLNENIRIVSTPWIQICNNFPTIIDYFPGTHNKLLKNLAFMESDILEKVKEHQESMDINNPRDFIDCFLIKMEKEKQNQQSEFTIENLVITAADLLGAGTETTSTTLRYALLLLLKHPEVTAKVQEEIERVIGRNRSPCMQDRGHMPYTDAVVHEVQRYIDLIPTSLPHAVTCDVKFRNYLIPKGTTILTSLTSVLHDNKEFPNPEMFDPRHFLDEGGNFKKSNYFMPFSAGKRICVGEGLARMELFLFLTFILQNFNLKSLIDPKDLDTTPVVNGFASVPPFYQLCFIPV
Excerpt: (§1) These assays made use of the PromegaP450-Glo™ (Madison, AL, USA) assay platform. Each CYP450 assay includes microsomal preparations of cytochromes from baculovirus-infected insect cells.

CYP3A4 = target: T4, CYP3A4 (Homo sapiens, UniProt P08684); assay: Cytochrome P450 3A4 assay (P450-Glo); format: in vitro ADME; settings: for inhibition at 10 µM: human
T4 construct: purchased Promega; host or cells: baculovirus-infected insect cells
T4 sequence (P08684 whole entry): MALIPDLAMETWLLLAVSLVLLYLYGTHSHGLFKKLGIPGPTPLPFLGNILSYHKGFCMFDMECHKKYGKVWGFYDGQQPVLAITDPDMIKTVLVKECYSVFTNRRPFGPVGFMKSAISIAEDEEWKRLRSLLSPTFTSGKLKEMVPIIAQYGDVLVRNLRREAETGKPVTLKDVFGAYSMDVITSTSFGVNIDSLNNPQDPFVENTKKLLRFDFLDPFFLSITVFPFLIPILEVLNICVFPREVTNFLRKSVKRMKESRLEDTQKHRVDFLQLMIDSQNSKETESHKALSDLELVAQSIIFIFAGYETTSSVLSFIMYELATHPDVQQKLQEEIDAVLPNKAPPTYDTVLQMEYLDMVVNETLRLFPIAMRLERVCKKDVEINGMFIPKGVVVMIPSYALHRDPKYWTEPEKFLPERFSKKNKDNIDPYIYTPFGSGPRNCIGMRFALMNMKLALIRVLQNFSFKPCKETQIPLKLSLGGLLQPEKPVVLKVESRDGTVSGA
Excerpt: as §1

[1] = Cytotoxicity against THP-1 macrophages (MTT); format: cell-based; settings: human, THP-1-derived macrophages; THP-1 macrophage-like cells; NOAEL = no observed adverse effect level; read-out: CC50 ± SD or NOAEL
Method: The effect of compounds 1–3 on THP-1-derived macrophages was assessed by the colorimetric (MTT) assay (3-(4,5-dimethylthiazol-2-yl)-2,5-diphenyl tetrazolium bromide).

[2] = target: T5, Leishmania major pteridine reductase 1 (LmPTR1) (Leishmania major, UniProt Q01782); assay: LmPTR1 enzyme reporter assay (cytochrome-c reduction, 550 nm); format: biochemical; settings: for IC50: compounds 1–3, SD agreed to ±10%; for inhibition at 50 µM: read-out: % Inhibition LmPTR1 (50 μM)
T5 construct: made in house
T5 sequence (Q01782 1-288): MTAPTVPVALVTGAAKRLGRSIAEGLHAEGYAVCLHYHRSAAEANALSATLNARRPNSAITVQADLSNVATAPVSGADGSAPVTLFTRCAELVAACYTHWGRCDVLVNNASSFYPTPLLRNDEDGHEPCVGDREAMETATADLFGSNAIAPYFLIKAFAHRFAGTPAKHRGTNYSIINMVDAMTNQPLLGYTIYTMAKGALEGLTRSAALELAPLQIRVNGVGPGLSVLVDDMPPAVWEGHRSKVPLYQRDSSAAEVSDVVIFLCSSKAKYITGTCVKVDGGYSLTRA
Method: TbPTR1 and LmPTR1 were purified as reported in literature. The enzyme kinetic profile of each selected protein was characterized by a spectrophotometric assay. The experimental assay consists of enzyme kinetic reaction monitoring at 340 nm for a total time of 180 s. The enzyme kinetic activity was measured at steady-state concentration of 7,8-dihydro-L-biopterin (H2B) and NADPH substrates equal to 50 and 120 µM and varying the enzyme concentration in the 0.001–0.006 µM and 0.005–0.010–0.015–0.020–0.025–0.030 µM range for Lm- and TbPTR1, respectively. The resulting kcat values were equal to 0.68 (s^−1) and 7.2 (s^−1) for Tb- and LmPTR1, respectively. For both TbPTR1 and LmPTR1, the Km value evaluation assay for H2B- and NADPH-substrates was performed in the 0.3-0.6–0.9–1.2–2.4–4.8 µM and 3.0–6.0–12.0–40.0–90.0–190.0 µM concentrations range, respectively.
Compounds 1A–3A were evaluated as reported in our previous paper. The novel synthesized compounds 1–3 were tested towards TbPTR1 and LmPTR1 using the in vitro TbPTR1/LmPTR1 enzyme reporter assay. The experimental procedure consists of monitoring the non-enzymatic reduction reaction of cytochrome-c at 550 nm, related to the reduction reaction of H2B to tetrahydrobiopterin (H4B) by using NADPH as the cofactor. TbPTR1 and LmPTR1 enzyme activity was assayed in a buffer containing 20 mM sodium citrate (pH 6.0) in a final experimental volume equal to 600 µL. The final reaction mixture contained different substrates added in the following order: TbPTR1/LmPTR1 (0.018 µM/0.002 µM) in 20 mM Tris-HCl, glycerol 10% (v/v), pH 7.5; H2B at a final concentration equal to 0.3 µM; cytochrome-c (80 µM); Milli-Q water to a final volume of 600 µL and NADPH to a final concentration of 500 µM. Before the addition of NADPH, the reaction mixture was incubated for 10 min at 30 °C and 80 RPM. To allow the starting of the reaction, NADPH was added and the enzyme reaction was detected for a total time of 10 min at 30 °C, 550 nm. The inhibition profile characterization of compounds 1–3 was performed with a DU-640 spectrophotometer (Beckman Coulter, Brea, CA, USA). Each compound was assayed in duplicate against Tb/LmPTR1 target enzymes in the 0–10–25–50–80–150 µM concentrations range. At the different concentration values, the compounds were added to the reaction mixture (enzyme, H2B, cytochrome-c in 20 mM sodium citrate buffer and Milli-Q water) and incubated for 10 min at 30 °C, 80 RPM. The reaction was initiated by the addition of NADPH (500 µM) and monitored for 10 min at 30 °C, 550 nm. The absorbance values were processed by software analysis and transformed into the corresponding slopes. The percentages of inhibition and the IC50 values were determined.

CYP2D6 = target: T6, CYP2D6 (Homo sapiens, UniProt P10635); assay: Cytochrome P450 2D6 assay (P450-Glo); format: in vitro ADME; settings: for inhibition at 10 µM: human
T6 construct: purchased Promega; host or cells: baculovirus-infected insect cells
T6 sequence (P10635 whole entry): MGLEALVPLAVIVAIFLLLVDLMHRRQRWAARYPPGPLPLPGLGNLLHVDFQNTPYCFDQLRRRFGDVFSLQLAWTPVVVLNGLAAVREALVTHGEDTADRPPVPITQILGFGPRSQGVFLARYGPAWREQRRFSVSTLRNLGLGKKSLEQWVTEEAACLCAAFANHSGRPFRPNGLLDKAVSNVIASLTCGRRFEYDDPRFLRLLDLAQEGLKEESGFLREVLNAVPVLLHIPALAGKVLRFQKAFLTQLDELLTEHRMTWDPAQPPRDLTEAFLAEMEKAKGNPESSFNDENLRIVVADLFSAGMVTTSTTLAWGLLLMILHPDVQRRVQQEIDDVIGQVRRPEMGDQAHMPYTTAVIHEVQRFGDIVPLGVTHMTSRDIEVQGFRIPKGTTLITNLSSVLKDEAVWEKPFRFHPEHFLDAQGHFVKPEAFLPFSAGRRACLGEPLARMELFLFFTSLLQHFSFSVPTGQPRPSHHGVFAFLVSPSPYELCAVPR
Excerpt: as §1

A549 cells = assay: Cytotoxicity assay against A549 cells (CellTiter-Glo); format: cell-based; settings: 100% = not cytotoxic, 0% = cytostatic
Method: The assays were performed using the CellTiter-Glo assay from Promega (Madison, AL, USA). The assay detects cellular adenosine triphosphate (ATP) content with the amount of ATP being directly proportional to the number of cells present. The A549 cells were obtained from DSMZ (German Collection of Microorganisms and Cell Cultures, Braunschweig, Germany) and W1-38 cells were obtained from ATCC (ATCC® CCL-75™) and were grown in Dulbecco's Modified Eagle Medium (DMEM) from Capricorn Scientific GmbH, Ebsdorfergrund, Germany with fetal bovine serum (FBS) (10% v/v) from Capricorn Scientific GmbH, Ebsdorfergrund, Germany, streptomycin (100 μg/mL) and penicillin G (100 U/mL).

[3] = tested on: T. brucei bloodstream forms; assay: Activity against T. brucei bloodstream forms (resazurin-based assay); format: cell-based, Trypanosoma brucei; settings: for EC50 / inhibition at 10 µM: bloodstream form; for EC50: dose response; for inhibition at 10 µM: read-out: % inh. T. brucei (10 μM); for selectivity index (SI): ratio between CC50 toward THP-1 and EC50 toward T. brucei
Method: The efficacy of compounds against T. brucei bloodstream forms was evaluated using a modified resazurin-based assay previously described in literature.

T1 sequence (Q96GD4 whole entry): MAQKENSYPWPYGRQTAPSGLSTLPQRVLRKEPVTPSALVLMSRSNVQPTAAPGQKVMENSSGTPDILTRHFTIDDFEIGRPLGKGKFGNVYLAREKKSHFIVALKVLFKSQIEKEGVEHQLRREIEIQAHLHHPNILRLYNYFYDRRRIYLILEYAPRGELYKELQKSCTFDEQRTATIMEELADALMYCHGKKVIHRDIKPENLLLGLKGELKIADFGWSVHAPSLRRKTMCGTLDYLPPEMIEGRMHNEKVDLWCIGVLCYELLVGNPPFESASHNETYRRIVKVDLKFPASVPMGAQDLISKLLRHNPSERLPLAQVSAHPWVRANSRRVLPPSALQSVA

| Compound | inhibition at 10 µM (Aurora B kinase) | IC50 (hERG channel) | inhibition at 10 µM (hERG channel) | IC50 (CYP2C19) | inhibition at 10 µM (CYP2C19) | IC50 (CYP3A4) | inhibition at 10 µM (CYP3A4) | CC50 [1] | IC50 [2] | inhibition at 50 µM [2] | IC50 (CYP2D6) | inhibition at 10 µM (CYP2D6) | % Cell growth A549 (10 μM) (A549 cells) | EC50 ([3]; Trypanosoma brucei) | inhibition at 10 µM ([3]; Trypanosoma brucei) | EC50 [3] | selectivity index (SI) [3] |
| --- | --- | --- | --- | --- | --- | --- | --- | --- | --- | --- | --- | --- | --- | --- | --- | --- | --- |
| O=C1CC(c2ccc(O)c(O)c2)Oc2ccc(O)cc21 (centres unmarked) [Compound 3] | < 15% | 64 µM | 20% | 5 µM | 2.68% | 65 µM | < 15% | > 100 µM | 36 µM | 69% | > 100 µM | < 15% | 124% | 34.8 ± 1.1 µM | 14% | 34.8 ± 1.1 µM | – |
| O=C1CC(c2ccc(O)cc2)Oc2ccc(O)cc21 (centres unmarked) [Compound 2] | < 15% | > 100 µM | 14% | 4 µM | 44.5% | > 100 µM | < 15% | > 100 µM | 35 µM | 56% | 94 µM | < 15% | 105% | 13 ± 1.82 µM | 49% | 13 ± 1.8 µM | higher than 7 |
| O=C1CC(c2cccc(O)c2)Oc2ccc(O)cc21 (centres unmarked) [Compound 1] | < 15% | > 100 µM | 7% | 1 µM | 77.2% | 80 µM | < 15% | > 100 µM | 57 µM | 50.4% | 85 µM | < 15% | 137% | 12.6 ± 1.69 µM | 44% | 12.6 ± 1.7 µM | greater than 7 |
